Data taken from patent US20200317642A1, “AMINE-SUBSTITUTED HETEROCYCLIC COMPOUNDS AS EHMT2 INHIBITORS AND DERIVATIVES THEREOF” (Epizyme, Inc., priority 2017, published 2020).

Assays:
[1] = target: T1, human EHMT2 913-1193 (Homo sapiens, UniProt Q96KQ7); assay: EHMT2 enzyme assay on histone peptide substrate; assay type: biochemical; settings: Table 3A; histone H3 1-15 peptide, balanced conditions; read-out: EHMT2 (IC50 μM)
T1 construct: recombinant purified human EHMT2 913-1193, Viva; purchased Viva
T1 sequence (Q96KQ7 913-1193): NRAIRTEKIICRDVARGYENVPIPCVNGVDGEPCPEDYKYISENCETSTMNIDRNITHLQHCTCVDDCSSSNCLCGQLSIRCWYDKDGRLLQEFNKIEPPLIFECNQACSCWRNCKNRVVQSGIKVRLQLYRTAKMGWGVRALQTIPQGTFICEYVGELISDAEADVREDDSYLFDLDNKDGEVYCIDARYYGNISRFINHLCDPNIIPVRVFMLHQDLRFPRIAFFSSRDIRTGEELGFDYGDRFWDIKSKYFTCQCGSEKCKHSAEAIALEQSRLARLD
Procedure, shortened: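 Human EHMT2 913-1193 (0.031 nM) was preincubated 30 min with compound (10-point 3-fold series, top 50 μM final, 2% DMSO) in Bicine pH 7.5 buffer. Reaction ran 60 min at room temperature with ³H-SAM and biotinylated H3 1-15 peptide, both at Km. Methylated peptide was captured on streptavidin Flashplates; 1 mM SAH defined 100% inhibition.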

[2] = system: H3K9me2 in MDA-MB-231 cells; assay: MDA-MB-231 H3K9me2 in-cell western assay (EHMT2 ICW); assay type: cell-based; settings: Homo sapiens, Table 3A, read-out: ICW (IC50 μM)
Procedure, shortened: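 MDA-MB-231 cells (3,000/well) were exposed to compound for 48 h at 37 °C, 30 min at room temperature, then a further 48 h. Fixed cells were immunostained for H3K9me2 with DRAQ5 co-stain and read by infrared imaging at 700/800 nm. Inhibition was set against DMSO and UNC0638 wells; IC50 from four-parameter fit (top 100%, bottom 0%), triplicates.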

IC50 [1]: 0.1 to 1 µM | IC50 [2]: > 1 µM
SMILES: CNC1=Nc2cc(-c3cc4n(n3)CCNC4)c(Cl)cc2C12CCC2 [Compound A10, 5′-chloro-N-methyl-6′-(4,5,6,7-tetrahydropyrazolo[1,5-a]pyrazin-2-yl)spiro[cyclobutane-1,3′-indol]-2′-amine]
